Target: T1, MNK2 (Homo sapiens, UniProt Q9HBH9)
T1 construct: the open reading frames of human Mnk1 and Mnk2a were amplified from cDNA; made in house; host or cells: E. coli BL21
Assay: Mnk2a in vitro kinase assay (indirect fluorescence polarization)
Format: biochemical
Details: pre-activated GST-Mnk2a 2.5 nM, 20 μM ATP, 30 μM substrate peptide
Description: Inhibitory potency of compounds against Mnk1, Mnk2a and other kinases was assessed with assays based on a format known to those skilled in the art as the indirect (competitive) fluorescence polarization. The assay detection system comprises a small fluorophore-labeled phospho-peptide (termed ligand) bound to a phospho-specific antibody. The product generated by the kinase reaction competes with the ligand for antibody binding. Based on the larger molecular volume of the bound ligand, which results in a lower rotation rate in solution, its emitted light has a higher degree of polarization than the one from the free ligand.
Example 2a. Mnk1 and Mnk2a in vitro kinase assay
As a source of enzyme, human Mnk1 and human Mnk2a were expressed as GST fusion proteins in E. coli, purified to >80% homogeneity by glutathione affinity chromatography and activated in vitro with pre-activated ERK2. In brief, the open reading frames of human Mnk1 and Mnk2a were amplified from cDNA using the forward/reverse primer pairs
(utilized restriction sites underlined), respectively, and cloned into the BamHI and SalI sites of the vector pGEX-4T1 (Amersham, Sweden, cat. no. 27-4580-01). These constructs allow prokaryotic expression of Mnk1 or Mnk2a as fusion protein with a N-terminal glutathione S-transferase (GST) tag, referred to as GST-Mnk1 or GSTMnk2a. The following expression and purification procedure was identical for GSTMnk1 and GST-Mnk2a, referring in general to GST-Mnk, when not distinguishing between the two isoforms. Expression of GST-Mnk was in E. coli BL21 (Merck Biosciences, Germany, cat. no. 69449). Cells were grown in LB-Bouillon (Merck, Germany, cat. no. 1.10285) supplemented with 100 μg/ml ampicillin (Sigma, Germany, cat. no. A9518) at 37° C. When the culture had reached a density corresponding to an A600 of 0.8, an equal volume of ice cold LB/ampicillin was added, the culture transferred to 25° C. and induced for 4 h with 1 mM isopropyl thiogalactoside (IPTG, Roth, Germany, cat. no. 2316.4). Cells harvested by centrifugation were resuspended in 10 ml lysis buffer (50 mM tris(hydroxymethyl)aminomethane hydrochloride (Tris/HCl, Sigma, Germany, cat. no. T5941) pH 7.5, 300 mM sodium chloride (NaCl, Sigma, Germany, cat. no. S7653), 5% (w/v) glycerol (Sigma, Germany, cat. no. G5516), 3 mM DTT dithiotreitol (DTT, Sigma, Germany, cat. no. D9779)) per gram wet weight cell pellet. Lysates were prepared by disruption of cells with a sonifier and subsequent clearing by centrifugation at 38000 g for 45 min at 4° C.
The lysate was applied to a GSTPrep FF 16/10 column (Amersham, Sweden, cat. no. 17-5234-01) equilibrated with lysis buffer. Removal of unbound material was with 3 column volumes (CV) lysis buffer. Elution was with 2 CV of elution buffer (50 mM Tris/HCl pH 7.5, 300 mM NaCl, 5% (w/v) glycerol, 20 mM glutathione (Sigma, Germany, cat. no. G4251)). Peak fractions were pooled and the protein transferred into storage buffer (50 mM Tris/HCl pH 7.5, 200 mM NaCl, 0.1 mM ethylene glycolbis(2-aminoethylether)-N,N,N′,N′-tetraacetic acid (EGTA, Aldrich, Germany, cat. no. 23, 453-2), 1 mM DTT, 10% (w/v) glycerol, 0.5 M sucrose (Sigma, Germany, cat. no. S0389) by gel filtration on a PD10 desalting column (Amersham, Sweden, cat. no. 17-0851-01). Aliquots were shock frozen in liquid nitrogen and stored at −80° C.
Activation of Mnk1 and Mnk2a was at a concentration of 2.5 μM of either purified GST-Mnk1 or GST-Mnk2a by incubation with 150 nM pre-activated NHis-ERK2 (see ERK2 assay for preparation) and 50 μM adenosine triphosphate (ATP, Sigma, cat. no. A2699) in a buffer comprising 20 mM N-(2-hydroxyethyl)piperazine-N′-(2-ethanesulfonic acid) (HEPES, Fluka, Germany, cat. no 54459)/potassium hydroxide (KOH, Roth, Germany, cat. no 6751.1) pH 7.4, 10 mM magnesium chloride (MgCl2, Sigma, Germany, cat. no. M2670), 0.25 mM DTT, 0.05% (w/v) polyoxyethylene 20 stearylether (Brij 78, Sigma, Germany, cat. no. P4019) (HMDB buffer) for 45 min at 30° C. […]

T1 sequence (Q9HBH9 whole entry): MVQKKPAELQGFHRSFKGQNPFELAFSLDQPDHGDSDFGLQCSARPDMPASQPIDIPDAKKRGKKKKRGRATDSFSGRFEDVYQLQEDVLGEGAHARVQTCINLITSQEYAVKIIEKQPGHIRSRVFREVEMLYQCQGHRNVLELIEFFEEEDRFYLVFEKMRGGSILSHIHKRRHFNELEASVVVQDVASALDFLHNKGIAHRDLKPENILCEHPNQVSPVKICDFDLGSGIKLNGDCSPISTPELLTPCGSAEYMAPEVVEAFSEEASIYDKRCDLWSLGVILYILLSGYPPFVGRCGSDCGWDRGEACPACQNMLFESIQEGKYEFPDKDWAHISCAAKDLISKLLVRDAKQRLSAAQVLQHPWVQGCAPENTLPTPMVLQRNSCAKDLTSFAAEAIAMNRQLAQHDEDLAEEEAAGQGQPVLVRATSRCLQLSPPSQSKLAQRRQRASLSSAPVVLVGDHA

SMILES | IC50 [nM]
CNC(=O)CNC(=O)c1sc2ncnc(Nc3ccc(F)cc3O[C@@H]3CCC[C@H](OC)C3)c2c1C (racemic) [Example 95] | 28
CO[C@@H]1CCC[C@@H](Oc2ncccc2Nc2ncnc3sc(C(=O)NCCN4CCCCC4)c(C)c23)C1 (racemic) [Example 145] | 68
COCCN[C@H]1CC[C@H](Oc2cc(F)ccc2Nc2ncnc3sc(C(N)=O)c(C)c23)CC1 [Example 24, 4-(4-Fluoro-2-(trans-4-(2-methoxyethylamino)cyclohexyloxy)phenylamino)-5-methylthieno[2,3-d]pyrimidine-6-amide] | 14
CO[C@H]1CCC[C@@H](Oc2ncccc2Nc2ncnc3sc(C(=O)NCCCO)c(C)c23)C1 (relative stereo) [Example 126] | 23
CCNC(=O)c1sc2ncnc(Nc3ccc(F)cc3O[C@@H]3CCC[C@H](OC)C3)c2c1C (racemic) [Example 109] | 24
CO[C@@H]1CCCC[C@H]1Oc1cc(F)ccc1Nc1ncnc2sc(C(=O)O)c(C)c12 [Example 248, 4-[4-Fluoro-2-((1R,2R)-2-methoxy-cyclohexyloxy)-phenylamino]-5-methyl-thieno[2,3-d]pyrimidine-6-carboxylic acid] | 10
CO[C@H]1CCCC[C@@H]1Oc1cc(F)ccc1Nc1ncnc2sc(C(=O)NCCCN(C)C)c(C)c12 [Example 43, 4-[4-Fluoro-2-((1S,2S)-2-methoxy-cyclohexyloxy)-phenylamino]-5-methyl-thieno[2,3-d]pyrimidine-6-carboxylic acid (3-dimethylamino-propyl)-amide] | 360
CCNC(=O)c1sc2ncnc(Nc3ccc(F)cc3O[C@H]3CC[C@H](O)CC3)c2c1C [Example 173] | 14
COC(=O)N[C@H]1CCC[C@@H]1Oc1cc(F)ccc1Nc1ncnc2sc(C(N)=O)c(C)c12 [Example 294] | 183
CO[C@@H]1CCC[C@@H](Oc2ncccc2Nc2ncnc3sc(C(=O)NCCCN4CCCC4)c(C)c23)C1 (racemic) [Example 148] | 49
Cc1c(C(=O)NCCCN(C)C)sc2ncnc(Nc3ccc(F)cc3O[C@@H]3CCCC[C@H]3O)c12 [Example 53, 4-[4-Fluoro-2-((1R,2R)-2-hydroxy-cyclohexyloxy)-phenylamino]-5-methyl-thieno[2,3-d]pyrimidine-6-carboxylic acid (3-dimethylamino-propyl)-amide] | 54
CNC(=O)CNC(=O)c1sc2ncnc(Nc3cccnc3O[C@@H]3CCC[C@@H](OC)C3)c2c1C (racemic) [Example 137] | 105
CO[C@H]1CC[C@H](Oc2cc(F)ccc2Nc2ncnc3sc(C(=O)NCC4CCCNC4)c(C)c23)CC1 (stereo partly drawn) [Example 200, 4-[4-Fluoro-2-(trans-4-methoxy-cyclohexyloxy)-phenylamino]-5-methyl-thieno[2,3-d]pyrimidine-6-carboxylic acid (piperidin-3-ylmethyl)-amide] | 17
Cc1c(C(N)=O)sc2ncnc(Nc3ccc(F)cc3O[C@@H]3CCC[C@@H]3O)c12 (relative stereo) [Example 224] | 8
CO[C@H]1CC[C@H](Oc2cc(F)ccc2Nc2ncnc3sc(C(=O)NCC4CN(C)CCO4)c(C)c23)CC1 (some centres unmarked) [Example 199] | 15
COC1CCCC(Oc2ncccc2Nc2ncnc3sc(C(=O)NC4CC4N)c(C)c23)C1 (mixture of isomers) [Example 132] | 96
Cc1c(C(N)=O)sc2ncnc(Nc3ccc(F)cc3O[C@H]3C[C@@H]4OCO[C@@H]4C3)c12 [Example 214] | 9
CN[C@H]1CCC[C@H](Oc2cc(F)ccc2Nc2ncnc3sc(C(N)=O)c(C)c23)C1 (relative stereo) [Example 18, 4-(4-Fluoro-2-(trans-3-(N-methylamino)cyclohexyloxy)phenylamino)-5-methylthieno[2,3-d]pyrimidine-6-carboxamide] | 36

SMILES | IC50 [nM]
COC(=O)c1sc2ncnc(Nc3ccc(F)cc3OC3CCC(C)(C)CC3)c2c1C [Example 31.1] | 37
CO[C@@H]1CCC[C@@H](Oc2ncccc2Nc2ncnc3sc(C(=O)NCC#CCN)c(C)c23)C1 (racemic) [Example 133] | 53
CONC(=O)c1sc2ncnc(Nc3ccc(F)cc3O[C@H]3CC[C@H](NC(C)=O)C3)c2c1C [Example 236] | 16
COC(=O)c1sc2ncnc(Nc3ccc(F)cc3O[C@@H]3C[C@H](O)C[C@H](O)C3)c2c1C [Example 28.1] | 158
CO[C@H]1CCC[C@@H](Oc2ncccc2Nc2ncnc3sc(C(=O)N[C@H]4CC[C@H](O)CC4)c(C)c23)C1 (racemic) [Example 121] | 41
CO[C@H]1CC[C@H](Oc2cc(F)ccc2Nc2ncnc3sc(C(=O)NCCCN4CCOCC4)c(C)c23)CC1 [Example 192, 4-[4-Fluoro-2-(trans-4-methoxy-cyclohexyloxy)-phenylamino]-5-methyl-thieno[2,3-d]pyrimidine-6-carboxylic acid (3-morpholin-4-yl-propyl)-amide] | 21
Cc1c(C(=O)NCC(C)O)sc2ncnc(Nc3ccc(F)cc3O[C@H]3CC[C@H](O)CC3)c12 (some centres unmarked) [Example 171] | 43
Cc1c(C(N)=O)sc2ncnc(Nc3ccc(F)cc3O[C@H]3CC[C@H](O)CC3)c12 [Example 158, 4-[4-Fluoro-2-(trans-4-hydroxy-cyclohexyloxy)-phenylamino]-5-methyl-thieno[2,3-d]pyrimidine-6-carboxylic acid amide] | 4
Cc1c(C(N)=O)sc2ncnc(Nc3ccc(F)cc3O[C@@H]3CCC[C@H]4OC(C)(C)O[C@@H]34)c12 (relative stereo) [Example 1] | 13
Cc1c(C(=O)NCCCN2CCCC2)sc2ncnc(Nc3cccnc3O[C@H]3CC[C@H](O)CC3)c12 [Example 268] | 14
CC(=O)N(C)[C@@H]1CCCC[C@H]1Oc1cc(F)ccc1Nc1ncnc2sc(C(N)=O)c(C)c12 (racemic) [Example 14, Racemic 4-(4-fluoro-2-(trans-2-(N-methylacetamido)cyclohexyloxy)phenylamino)-5-methylthieno[2,3-d]pyrimidine-6-carboxamide] | 1600
CO[C@H]1CCCC[C@@H]1Oc1cc(F)ccc1Nc1ncnc2sc(C(N)=O)c(C)c12 [Example 42, 4-[4-Fluoro-2-((1S,2S)-2-methoxy-cyclohexyloxy)-phenylamino]-5-methyl-thieno[2,3-d]pyrimidine-6-carboxylic acid amide] | 140
CCNC(=O)c1sc2ncnc(Nc3cccnc3O[C@H]3CC[C@H](N)CC3)c2c1C [Example 284] | 10
CO[C@H]1CC[C@H](Oc2cc(F)ccc2Nc2ncnc3sc(C(=O)NCCCN4CCCCC4)c(C)c23)CC1 [Example 275] | 10
Cc1c(C(=O)NC2CCN(C)CC2)sc2ncnc(Nc3ccc(F)cc3O[C@H]3C[C@@H]4OCO[C@@H]4C3)c12 [Example 292] | 46
CO[C@@H]1CCC[C@@H](Oc2ncccc2Nc2ncnc3sc(C(=O)NCc4cnco4)c(C)c23)C1 (racemic) [Example 135] | 65
Cc1c(C(=O)NCC(C)O)sc2ncnc(Nc3ccc(F)cc3OC3CCCC(O)C3)c12 (mixture of isomers) [Example 73] | 43

Reference: patent US8754079B2, “Cycloalkyl containing thienopyrimidines for pharmaceutical compositions” (Boehringer Ingelheim International GmbH, priority 2010, dated 2014)
